Values after ≈ are worked out from the molar mass of the structure shown.
How the values were obtained:
Format in all cases: functional
[1] = test system: Acinetobacter calcoaceticus; assay: Antimicrobial activity against Acinetobacter calcoaceticus clinical isolate after 18 to 22 hrs by broth microdilution method
Proteus vulgaris = assay: Antimicrobial activity against Proteus vulgaris clinical isolate after 18 to 22 hrs by broth microdilution method
Providencia rettgeri = assay: Antimicrobial activity against Providencia rettgeri clinical isolate after 18 to 22 hrs by broth microdilution method
[2] = test system: Stenotrophomonas maltophilia; assay: Antimicrobial activity against Stenotrophomonas maltophilia clinical isolate after 18 to 22 hrs by broth microdilution method
Enterobacter cloacae [3] = assay: Antimicrobial activity against AmpC beta-lactamase-producing Enterobacter cloacae clinical isolate after 18 to 22 hrs by broth microdilution method
Citrobacter freundii [4] = assay: Antimicrobial activity against Citrobacter freundii clinical isolate after 18 to 22 hrs by broth microdilution method
Escherichia coli [5] = assay: Antimicrobial activity against AmpC beta-lactamase-producing Escherichia coli clinical isolate after 18 to 22 hrs by broth microdilution method
Haemophilus influenzae [6] = assay: Antimicrobial activity against beta-lactamase-producing Haemophilus influenzae clinical isolate after 18 to 22 hrs by broth microdilution method
Klebsiella aerogenes [7] = assay: Antimicrobial activity against Enterobacter aerogenes clinical isolate after 18 to 22 hrs by broth microdilution method
Burkholderia cepacia = assay: Antimicrobial activity against Burkholderia cepacia clinical isolate after 18 to 22 hrs by broth microdilution method
Providencia stuartii = assay: Antimicrobial activity against Providencia stuartii clinical isolate after 18 to 22 hrs by broth microdilution method
Serratia marcescens [8] = assay: Antimicrobial activity against AmpC beta-lactamase-producing Serratia marcescens clinical isolate after 18 to 22 hrs by broth microdilution method
Moraxella catarrhalis = assay: Antimicrobial activity against Moraxella catarrhalis clinical isolate after 18 to 22 hrs by broth microdilution method
Klebsiella pneumoniae [9] = assay: Antimicrobial activity against class A extended spectrum beta-lactamase- producing Klebsiella pneumoniae clinical isolate after 18 to 22 hrs by broth microdilution method
Klebsiella aerogenes [10] = assay: Antimicrobial activity against AmpC beta-lactamase-producing Enterobacter aerogenes clinical isolate after 18 to 22 hrs by broth microdilution method
Klebsiella oxytoca = assay: Antimicrobial activity against Klebsiella oxytoca clinical isolate after 18 to 22 hrs by broth microdilution method
Serratia marcescens [11] = assay: Antimicrobial activity against Serratia marcescens clinical isolate after 18 to 22 hrs by broth microdilution method
Proteus mirabilis = assay: Antimicrobial activity against Proteus mirabilis clinical isolate after 18 to 22 hrs by broth microdilution method
Citrobacter koseri = assay: Antimicrobial activity against Citrobacter koseri clinical isolate after 18 to 22 hrs by broth microdilution method
Klebsiella pneumoniae [12] = assay: Antimicrobial activity against AmpC- producing Klebsiella pneumoniae clinical isolate after 18 to 22 hrs by broth microdilution method
Escherichia coli [13] = assay: Antimicrobial activity against class A extended spectrum beta-lactamase- producing Escherichia coli clinical isolate after 18 to 22 hrs by broth microdilution method
Klebsiella pneumoniae [14] = assay: Antimicrobial activity against Klebsiella pneumoniae clinical isolate after 18 to 22 hrs by broth microdilution method
Klebsiella pneumoniae [15] = assay: Antimicrobial activity against class A extended spectrum beta-lactamase- and class D OXA- producing Klebsiella pneumoniae clinical isolate after 18 to 22 hrs by broth microdilution method
[16] = test system: Acinetobacter haemolyticus; assay: Antimicrobial activity against Acinetobacter haemolyticus clinical isolate after 18 to 22 hrs by broth microdilution method
Pseudomonas aeruginosa = assay: Antimicrobial activity against Pseudomonas aeruginosa clinical isolate after 18 to 22 hrs by broth microdilution method
Haemophilus influenzae [17] = assay: Antimicrobial activity against beta-lactamase-negative Haemophilus influenzae clinical isolate after 18 to 22 hrs by broth microdilution method
Acinetobacter lwoffii = assay: Antimicrobial activity against Acinetobacter lwoffii clinical isolate after 18 to 22 hrs by broth microdilution method
[18] = test system: Haemophilus parainfluenzae; assay: Antimicrobial activity against Haemophilus parainfluenzae clinical isolate after 18 to 22 hrs by broth microdilution method
Enterobacter cloacae [19] = assay: Antimicrobial activity against Enterobacter cloacae clinical isolate after 18 to 22 hrs by broth microdilution method
Acinetobacter junii = assay: Antimicrobial activity against Acinetobacter junii clinical isolate after 18 to 22 hrs by broth microdilution method
Acinetobacter baumannii = assay: Antimicrobial activity against Acinetobacter baumannii clinical isolate after 18 to 22 hrs by broth microdilution method
Escherichia coli [20] = assay: Antimicrobial activity against class A extended spectrum beta-lactamase- and class D OXA- producing Escherichia coli clinical isolate after 18 to 22 hrs by broth microdilution method
Citrobacter freundii [21] = assay: Antimicrobial activity against AmpC beta-lactamase-producing Citrobacter freundii clinical isolate after 18 to 22 hrs by broth microdilution method
Morganella morganii = assay: Antimicrobial activity against Morganella morganii clinical isolate after 18 to 22 hrs by broth microdilution method
Escherichia coli [22] = assay: Antimicrobial activity against Escherichia coli clinical isolate after 18 to 22 hrs by broth microdilution method
Acinetobacter johnsonii = assay: Antimicrobial activity against Acinetobacter johnsonii clinical isolate after 18 to 22 hrs by broth microdilution method

For `CO/N=C(\C(=O)N[C@@H]1C(=O)N2C(C(=O)O)=C(CSc3nc(=O)c(O)nn3C)CS[C@H]12)c1csc(N)n1` [CEFTRIAXONE], the MIC50 [1] was > 32 µg/mL, the MIC90 [1] was > 32 µg/mL and the MIC50 (Proteus vulgaris) was 32 µg/mL (≈ 57.7 µM). For the same molecule, the MIC90 (Proteus vulgaris) was > 32 µg/mL, the MIC50 (Providencia rettgeri) was 0.06 µg/mL (≈ 0.108 µM) and the MIC90 (Providencia rettgeri) was > 32 µg/mL. The MIC [2] was > 32 µg/mL, the MIC50 [2] was > 32 µg/mL and the MIC90 [2] was > 32 µg/mL. For the same molecule, the MIC50 (Enterobacter cloacae [3]) was 32 µg/mL (≈ 57.7 µM), the MIC90 (Enterobacter cloacae [3]) was > 32 µg/mL and the MIC50 (Citrobacter freundii [4]) was 0.5 µg/mL (≈ 0.902 µM). The MIC90 (Citrobacter freundii [4]) was > 32 µg/mL, the MIC50 (Escherichia coli [5]) was > 32 µg/mL and the MIC90 (Escherichia coli [5]) was > 32 µg/mL. For the same molecule, the MIC (Haemophilus influenzae [6]) was ≤ 0.03 µg/mL, the MIC50 (Haemophilus influenzae [6]) was ≤ 0.03 µg/mL and the MIC90 (Haemophilus influenzae [6]) was ≤ 0.03 µg/mL. The MIC50 (Klebsiella aerogenes [7]) was 0.12 µg/mL (≈ 0.216 µM), the MIC90 (Klebsiella aerogenes [7]) was > 32 µg/mL and the MIC50 (Burkholderia cepacia) was 32 µg/mL (≈ 57.7 µM). The MIC90 (Burkholderia cepacia) was > 32 µg/mL, the MIC50 (Providencia stuartii) was 0.06 µg/mL (≈ 0.108 µM) and the MIC90 (Providencia stuartii) was > 32 µg/mL. For the same molecule, the MIC50 (Serratia marcescens [8]) was 32 µg/mL (≈ 57.7 µM), the MIC90 (Serratia marcescens [8]) was > 32 µg/mL and the MIC (Moraxella catarrhalis) was ≤ 0.03 µg/mL. For the same molecule, the MIC50 (Moraxella catarrhalis) was ≤ 0.03 µg/mL, the MIC90 (Moraxella catarrhalis) was 0.5 µg/mL (≈ 0.902 µM) and the MIC50 (Klebsiella pneumoniae [9]) was > 32 µg/mL. For the same molecule, the MIC90 (Klebsiella pneumoniae [9]) was > 32 µg/mL, the MIC50 (Klebsiella aerogenes [10]) was 32 µg/mL (≈ 57.7 µM) and the MIC90 (Klebsiella aerogenes [10]) was > 32 µg/mL. The MIC50 (Klebsiella oxytoca) was 0.06 µg/mL (≈ 0.108 µM), the MIC90 (Klebsiella oxytoca) was 0.12 µg/mL (≈ 0.216 µM) and the MIC50 (Serratia marcescens [11]) was 0.5 µg/mL (≈ 0.902 µM). For the same molecule, the MIC90 (Serratia marcescens [11]) was > 32 µg/mL, the MIC50 (Proteus mirabilis) was ≤ 0.03 µg/mL and the MIC90 (Proteus mirabilis) was > 32 µg/mL. It also gave an MIC50 (Citrobacter koseri) of 0.06 µg/mL (≈ 0.108 µM), an MIC90 (Citrobacter koseri) of 0.25 µg/mL (≈ 0.451 µM) and an MIC50 (Klebsiella pneumoniae [12]) of 32 µg/mL (≈ 57.7 µM). The MIC90 (Klebsiella pneumoniae [12]) was > 32 µg/mL, the MIC50 (Escherichia coli [13]) was > 32 µg/mL and the MIC90 (Escherichia coli [13]) was > 32 µg/mL. The MIC50 (Klebsiella pneumoniae [14]) was 0.06 µg/mL (≈ 0.108 µM), the MIC90 (Klebsiella pneumoniae [14]) was 0.12 µg/mL (≈ 0.216 µM) and the MIC50 (Klebsiella pneumoniae [15]) was > 32 µg/mL. The MIC90 (Klebsiella pneumoniae [15]) was > 32 µg/mL, the MIC50 [16] was 2 µg/mL (≈ 3.61 µM) and the MIC90 [16] was 8 µg/mL (≈ 14.4 µM). The MIC50 (Pseudomonas aeruginosa) was > 32 µg/mL, the MIC90 (Pseudomonas aeruginosa) was > 32 µg/mL and the MIC (Haemophilus influenzae [17]) was ≤ 0.03 µg/mL. For the same molecule, the MIC50 (Haemophilus influenzae [17]) was ≤ 0.03 µg/mL, the MIC90 (Haemophilus influenzae [17]) was ≤ 0.03 µg/mL and the MIC50 (Acinetobacter lwoffii) was 2 µg/mL (≈ 3.61 µM). For the same molecule, the MIC90 (Acinetobacter lwoffii) was 8 µg/mL (≈ 14.4 µM), the MIC [18] was ≤ 0.03 µg/mL and the MIC50 [18] was ≤ 0.03 µg/mL. The MIC90 [18] was ≤ 0.03 µg/mL, the MIC50 (Enterobacter cloacae [19]) was 0.5 µg/mL (≈ 0.902 µM) and the MIC90 (Enterobacter cloacae [19]) was > 32 µg/mL. For the same molecule, the MIC50 (Acinetobacter junii) was 2 µg/mL (≈ 3.61 µM), the MIC90 (Acinetobacter junii) was 8 µg/mL (≈ 14.4 µM) and the MIC50 (Acinetobacter baumannii) was > 32 µg/mL. For the same molecule, the MIC90 (Acinetobacter baumannii) was > 32 µg/mL, the MIC (Escherichia coli [20]) was > 32 µg/mL and the MIC50 (Escherichia coli [20]) was > 32 µg/mL. The MIC90 (Escherichia coli [20]) was > 32 µg/mL, the MIC50 (Citrobacter freundii [21]) was 32 µg/mL (≈ 57.7 µM) and the MIC90 (Citrobacter freundii [21]) was > 32 µg/mL. The MIC50 (Morganella morganii) was 0.06 µg/mL (≈ 0.108 µM), the MIC90 (Morganella morganii) was 8 µg/mL (≈ 14.4 µM) and the MIC50 (Escherichia coli [22]) was 0.06 µg/mL (≈ 0.108 µM). For the same molecule, the MIC90 (Escherichia coli [22]) was 0.06 µg/mL (≈ 0.108 µM), the MIC50 (Acinetobacter johnsonii) was 2 µg/mL (≈ 3.61 µM) and the MIC90 (Acinetobacter johnsonii) was 8 µg/mL (≈ 14.4 µM).
